In US20240100088A1, “NOVEL FORMULATION FOR TREATING COPPER METABOLISM-ASSOCIATED DISEASES OR DISORDERS” (Alexion Pharmaceuticals, Inc., priority 2021, published 2024):
“Also recorded” adds a separate entry of the source.

Columns and labels:
[1] = Phase 1 study: safety and tolerability (TEAEs, TESAEs, clinical laboratory); assay type: in vivo, healthy adult participants
Description: (§1) The safety and tolerability of the 2 formulations of BC-TTM in healthy participants was also assessed. BC-TTM pharmacokinetics (PK) in plasma as measured via total molybdenum (Mo) and plasma ultrafiltrate (PUF) Mo was determined.

[2] = Phase 1 study, Dose-Proportionality Extension Period: PK of plasma total Mo and PUF Mo (incl. dose-normalized, power model); assay type: in vivo, healthy adult participants; settings: any of the treatments evaluated
Description: as §1
The Dose-Proportionality Extension Period was a re-randomized, open-label, parallel group design to assess the dose-proportionality between 2.5 mg (2×1.25 mg), 5 mg (4×1.25 mg), 10 mg (8×1.25 mg), and 30 mg (24×1.25 mg) EC mini-tablet doses. The 15 mg (12×1.25 mg) dose was not repeated during the Dose-Proportionality Extension Period.
The Dose-Proportionality Extension Period was conducted following completion of the Two-way Crossover Period of the study and after an at least 14-day washout period. Participants were re-randomized as follows: • Treatment C (N=10-12): BC-TTM 2.5 mg (2×1.25 mg EC mini-tablets) • Treatment D (N=10-12): BC-TTM 5 mg (4×1.25 mg EC mini-tablets) • Treatment E (N=10-12): BC-TTM 10 mg (8×1.25 mg EC mini-tablets) • Treatment F (N=10-12): BC-TTM 30 mg (24×1.25 ma EC mini-tablets)
The dose-proportionality evaluation included data obtained from Treatment A of the Two-way Crossover Period (12×1.25 mg EC mini-tablets) to represent a dose of 15 mg,
Re-randomized treatment assignment were based on Baseline body mass index (BMI). Two strata for Baseline BM (<25, 25 to <32 kg/m^2) were used. […]

**Q.** For `C[N+](C)(C)CCO.C[N+](C)(C)CCO.[SH-].[SH-].[S]=[Mo]=[S]` [BC-TTM, Bis-choline tetrathiomolybdate], which “deaths or TESAEs” value ([1]; all treatments) is on record?
**A.** No deaths or TESAEs were reported

**Q.** What about the “severity of TEAEs” value ([1]; all treatments, except 2 Grade 4 events after Treatment B) of the same molecule?
**A.** All TEAEs were Grade 1 or 2 in severity,

**Q.** And the “safety profile and tolerability” value ([1]; single oral dose 2.5 mg to 30 mg as EC mini-tablets and as a 15 mg EC tablet)?
**A.** acceptable safety profile and was generally well-tolerated

**Q.** And the “effect of body weight or BMI on BC-TTM PK” value [2]?
**A.** apparently not affected; also recorded: There was no apparent effect of body
